pIC50: −log10 of the molar value. The source made the active and inactive calls. The calls are words filed in the database; no cut-off is given here.
How the values were obtained:
DOHH-2 [1] = assay: Induction of apoptosis in human DOHH-2 cells assessed as late apoptotic cells at 5 uM measured after 48 hrs by annexin-V/FITC and PI staining based flow cytometry analysis (reference value: 3.66%); type: functional
[2] = Upregulation of BAX mRNA level in human DOHH-2 cells assessed as fold change at 300 nM measured after 6 days by PCR analysis; type: functional; conditions: time 6 day
TMD8 [3] = assay: Antitumor activity against human TMD8 cells xenografted in mouse model assessed as inhibition of DNA methylation at 10 mg/kg, iv administered three times a week; type: functional, organism-based
[4] = AUC (0 to t) in Sprague-Dawley rat at 10 mg/kg, iv measured upto 24 hrs by LC/MS/MS analysis; type: ADME, organism-based; conditions: Sprague-Dawley, in vivo
[5] = Clearance in Sprague-Dawley rat at 10 mg/kg, iv measured upto 24 hrs by LC/MS/MS analysis; type: ADME, organism-based; conditions: in vivo
[6] = Terminal elimination half life in Sprague-Dawley rat at 10 mg/kg, iv measured upto 24 hrs by LC/MS/MS analysis; type: ADME, organism-based; conditions: in vivo, read-out: beta t1/2 (converted)
[7] = Antitumor activity against human TMD8 cells harbouring TP53 mutant xenografted in mouse model assessed as body weight change at 10 mg/kg, iv administered three times a week relative to control; type: functional
[8] = Subacute toxicity in Balb/C mouse assessed as effect on spleen at 30 mg/kg, iv administered three times in a week for 2 weeks; type: organism-based; conditions: in vivo, 336 h
[9] = Toxicity in mouse assessed as effect on weight gain at 10 mg/kg, iv administered three times a week; type: organism-based; conditions: in vivo
[10] = Subacute toxicity in Balb/C mouse assessed as effect on platelet at 30 mg/kg, iv administered three times in a week for 2 weeks; type: organism-based; conditions: in vivo, 336 h
DOHH-2 [11] = assay: Induction of apoptosis in human DOHH-2 cells assessed as late apoptotic cells at 2.5 uM measured after 48 hrs by annexin-V/FITC and PI staining based flow cytometry analysis (reference value: 3.66%); type: functional
NCI-H1299 = assay: Antiproliferative activity against human NCI-H1299 cells assessed as inhibition of cell viability measured after 72 hrs by MTT assay; type: functional, cell-based; conditions: NCI-H1299, 72 h
[12] = Antitumor activity against human TMD8 cells harbouring […] xenografted in mouse model assessed as tumor inhibition rate at 10 mg/kg, iv administered three times a week in presence of chidamide relative to control; type: functional; parameters: scale not given: the % may be the effect or the level left
DOHH-2 [13] = assay: Induction of cell cycle arrest in human DOHH-2 cells assessed as accumulation of cells at G2-M phase at 1.0 uM incubated for 24 hrs by PI staining based flow cytometry analysis (reference value: 27.8%); type: functional
Jurkat = assay: Antiproliferative activity against human Jurkat cells assessed as inhibition of cell viability measured after 72 hrs by MTT assay; type: functional, cell-based
[14] = Upregulation of FAS mRNA level in human DOHH-2 cells assessed as fold change at 300 nM measured after 6 days by PCR analysis; type: functional; conditions: time 6 day
DOHH-2 [15] = assay: Induction of apoptosis in human DOHH-2 cells assessed as early apoptotic cells measured after 48 hrs by annexin-V/FITC and PI staining based flow cytometry analysis; type: functional, cell-based; conditions: dose 0.25-5 µM
TMD8 [16] = assay: Induction of cell cycle arrest in human TMD8 cells assessed as accumulation of cells at G2/M phase incubated for 24 hrs by PI staining based flow cytometry analysis; type: functional; conditions: dose 0.25-1 µM
DOHH-2 [17] = assay: Induction of apoptosis in human DOHH-2 cells assessed as late apoptotic cells measured after 48 hrs by annexin-V/FITC and PI staining based flow cytometry analysis; type: functional, cell-based; conditions: dose 0.25-5 µM
[18] = Subacute toxicity in Balb/C mouse assessed as effect on hemoglobin at 30 mg/kg, iv administered three times in a week for 2 weeks; type: organism-based; conditions: in vivo, 336 h
TMD8 [19] = assay: Induction of apoptosis in human TMD8 cells assessed as late apoptotic cells at 1 uM measured after 48 hrs by annexin-V/FITC and PI staining based flow cytometry analysis (reference value: 5.13%); type: functional
DOHH-2 [20] = assay: Induction of apoptosis in human DOHH-2 cells assessed as late apoptotic cells at 0.25 uM measured after 48 hrs by annexin-V/FITC and PI staining based flow cytometry analysis (reference value: 3.66%); type: functional
HepG2 = assay: Antiproliferative activity against human HepG2 cells assessed as inhibition of cell viability measured after 72 hrs by MTT assay; type: functional, cell-based; conditions: HepG2, 72 h
TMD8 [21] = assay: Induction of apoptosis in human TMD8 cells assessed as late apoptotic cells at 5 uM measured after 48 hrs by annexin-V/FITC and PI staining based flow cytometry analysis (reference value: 5.13%); type: functional
[22] = Subacute toxicity in Balb/C mouse assessed as effect on peripheral blood at 10 mg/kg, iv administered three times in a week for 2 weeks; type: organism-based; conditions: in vivo, 336 h
DOHH-2 [23] = assay: Induction of apoptosis in human DOHH-2 cells assessed as early apoptotic cells at 0.25 uM measured after 48 hrs by annexin-V/FITC and PI staining based flow cytometry analysis (reference value: 5.69%); type: functional
DOHH-2 [24] = assay: Induction of cell cycle arrest in human DOHH-2 cells assessed as accumulation of cells at S phase at 0.5 uM incubated for 24 hrs by PI staining based flow cytometry analysis (reference value: 40.7%); type: functional
DOHH-2 [25] = assay: Induction of apoptosis in human DOHH-2 cells assessed as early apoptotic cells at 2.5 uM measured after 48 hrs by annexin-V/FITC and PI staining based flow cytometry analysis (reference value: 5.69%); type: functional

AUC(0-t) at 24 h [4]: 1010 ng·h/mL | clearance [5]: 123 mL/min/kg | half-life [6]: 10.8 h | pIC50 (NCI-H1299): 5.62 | pIC50 (Jurkat): 6.24 | pIC50 (HepG2): 5.54
Structure (SMILES): CN1CCC(Nc2nc(-c3ccnc(F)c3)nc3c2ccn3CCCN2CCCC2)CC1
Activity (DOHH-2 [1]): 34.7% | fold change (FC) [2]: 1.93 | Activity (TMD8 [3]): Active | Activity [7]: -0.9% | Activity [8]: Non-toxic | Activity [9]: Non-toxic | Activity [10]: Non-toxic | Activity (DOHH-2 [11]): 23.5% | Activity [12]: 78.1% | Activity (DOHH-2 [13]): 32% | fold change (FC) [14]: 3.05 | Activity (DOHH-2 [15]): Dose-dependent-effect | Activity (TMD8 [16]): Dose-dependent-effect | Activity (DOHH-2 [17]): Dose-dependent-effect | Activity [18]: Non-toxic | Activity (TMD8 [19]): 6.88% | Activity (DOHH-2 [20]): 7.58% | Activity (TMD8 [21]): 17% | Activity [22]: Non-toxic | Activity (DOHH-2 [23]): 10.5% | Activity (DOHH-2 [24]): 26.6% | Activity (DOHH-2 [25]): 33.7%

— ChEMBL document CHEMBL6153174, “Design and Synthesis of Novel Deazapurine DNMT 1 Inhibitors with In Vivo Efficacy in DLBCL” (J Med Chem, 2025)
